For one compound, IC50 results are on record in patent US12459915B2, “Biaryl derivative useful as diacylglycerol acyltransferase 2 inhibitor, and use thereof” (LG CHEM, LTD., priority 2020, dated 2025).

This assay addresses Recombinant human DGAT2 protein (Homo sapiens (Human), UniProt Q96PD7). As to the kind of experiment: Measurement of inhibitory effect against DGAT2 enzyme activity (SPA, Phospholipid Flash Plate). The note with it: DGAT2-membrane protein from Sf-21 cells, [14C] oleoyl CoA, 1,2 sn-oleoyl glycerol, 37° C.; read-out: IC50 (concentration of the compound that inhibits TG production by 50%). The class given is biochemical. Here is the method:
In order to prepare the pBacPAK9-DGAT2, which is DGAT2 expression vector, the human DGAT2 gene amplified by polymerase chain reaction (PCR) was cloned into the EcoR1 and Xho1 sites of the pBacPAK9 (clonctech) vector. The nucleotide sequence of the primers used in PCR was the forward primer 5′ […] and the reverse primer 5′ […]. The composition of the reaction solution was to contain 50 ng of cDNA clone (OriGene), 200 μM of dATP, dCTP, dTTP, dGTP, 200 nM of each primer, 1 unit of Tag DNA Polymerase (Toyobo), 1×PCR buffer, and the final volume was adjusted to 20 μl. […]
Recombinant human DGAT2 protein was expressed in Sf-21 cells, which are insect cells, by using the BacPack baculovirus expression system (Clontech). […] Protein concentration was quantified by using the BCA Protein Assay Kit (Thermo Scientific).
In vitro DGAT2 analysis was performed using a Phospholipid Flash Plate (PerkinElmer) based on the principle of SPA (Scintilation Proximity Assay). […] The next day, the amplified scintillation signal (cpm) in Topcounter (Packard) was measured to measure the degree of production of [14C]-labeled triacyl glycerol (TG) as a reaction product. The measured value when the compound was not treated was used as a positive control, and the measured value of the compound treated group was calculated as a relative % to measure the inhibition effect of the compound on TG production. […]

Recombinant human DGAT2 protein, sequence (Q96PD7 whole entry): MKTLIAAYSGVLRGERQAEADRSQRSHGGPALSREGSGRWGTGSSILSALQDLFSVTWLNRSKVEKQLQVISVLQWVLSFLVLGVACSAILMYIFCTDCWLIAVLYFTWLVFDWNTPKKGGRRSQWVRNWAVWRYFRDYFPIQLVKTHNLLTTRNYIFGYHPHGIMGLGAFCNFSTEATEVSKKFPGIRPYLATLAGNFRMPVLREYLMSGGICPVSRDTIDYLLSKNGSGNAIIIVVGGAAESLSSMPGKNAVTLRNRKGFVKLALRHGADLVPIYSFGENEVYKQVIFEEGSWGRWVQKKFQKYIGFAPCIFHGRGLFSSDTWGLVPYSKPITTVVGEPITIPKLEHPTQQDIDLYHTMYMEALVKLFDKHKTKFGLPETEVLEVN

For the compound `CCOc1ccccc1Oc1cccc(-c2cncc(NC(=O)Cc3ccc(CC(=O)O)cc3)n2)c1` [Example 11, 2-(4-(2-((6-(3-(2-ethoxyphenoxy)phenyl)pyrazin-2-yl)amino)-2-oxoethyl)phenyl)acetic acid], the IC50 was 370 nM.
